Measured values reported in patent US7994209B2, “3-phenoxymethylpyrrolidine compounds” (Theravance, Inc., priority 2009, dated 2011).

Biological target: hNET (Homo sapiens, UniProt P23975)
Test: hNET membrane radioligand binding assay (3H-nisoxetine), Assay 1
Details: not given

Sequence of hNET (P23975 whole entry): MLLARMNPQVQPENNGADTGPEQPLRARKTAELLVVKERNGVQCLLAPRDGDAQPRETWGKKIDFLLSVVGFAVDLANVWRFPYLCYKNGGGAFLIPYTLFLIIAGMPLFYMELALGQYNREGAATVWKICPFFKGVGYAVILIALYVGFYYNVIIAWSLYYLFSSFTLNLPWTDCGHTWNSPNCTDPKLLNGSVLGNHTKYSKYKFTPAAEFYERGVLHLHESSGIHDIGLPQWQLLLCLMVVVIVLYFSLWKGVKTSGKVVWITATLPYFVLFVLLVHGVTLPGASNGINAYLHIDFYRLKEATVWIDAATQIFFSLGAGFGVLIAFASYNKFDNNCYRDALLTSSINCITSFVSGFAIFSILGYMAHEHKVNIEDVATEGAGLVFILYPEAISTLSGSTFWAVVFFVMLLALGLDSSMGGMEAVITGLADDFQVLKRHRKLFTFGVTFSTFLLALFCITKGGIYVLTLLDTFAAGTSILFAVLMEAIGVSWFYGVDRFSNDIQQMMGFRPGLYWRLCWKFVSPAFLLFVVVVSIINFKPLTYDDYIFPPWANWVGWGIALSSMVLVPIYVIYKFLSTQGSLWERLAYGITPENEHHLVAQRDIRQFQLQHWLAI

Compound	Ki
CSc1ccccc1O[C@@H](C1CC1)[C@H]1CCNC1 [Example 16-5, (S)-3-[(S)cyclopropyl-(2-methylsulfanylphenoxy)methyl]pyrrolidine]	≤ 10 nM
Clc1cccc(O[C@@H](C2CC2)[C@@H]2CCNC2)c1Cl [Example 16-6, (R)-3-[(S)cyclopropyl-(2,3-dichlorophenoxy)methyl]pyrrolidine]	≤ 100 nM
FC(F)(F)c1c(Cl)cccc1O[C@H](C1CC1)[C@H]1CCNC1 [Example 16-17, (S)-3-[(R)-(3-Chloro-2-trifluoromethylphenoxy)cyclopropylmethyl]pyrrolidine]	≤ 100 nM
COc1c(Cl)cccc1O[C@@H](C1CC1)[C@H]1CCNC1 [Example 16-18, (S)-3-[(S)-(3-Chloro-2-methoxyphenoxy)cyclopropylmethyl]pyrrolidine]	≤ 10 nM
COc1cc(F)ccc1O[C@H](C1CC1)[C@H]1CCNC1 [Example 16-39, (S)-3-[(R)cyclopropyl-(4-fluoro-2-methoxyphenoxy)methyl]pyrrolidine]	≤ 100 nM
COc1cc(F)ccc1O[C@@H](C1CC1)[C@H]1CCNC1 [Example 16-40, (S)-3-[(S)cyclopropyl-(4-fluoro-2-methoxyphenoxy)methyl]pyrrolidine]	≤ 10 nM
Clc1ccc(O[C@@H](C2CC2)[C@H]2CCNC2)c(C2CCCCC2)c1 [Example 16-43, (S)-3-[(S)-(4-Chloro-2-cyclohexylphenoxy)cyclopropylmethyl]pyrrolidine]	≤ 10 nM
Cc1cccc(Cl)c1O[C@@H](C1CC1)[C@H]1CCNC1 [Example 16-45, (S)-3-[(S)-(2-Chloro-6-methylphenoxy)cyclopropylmethyl]pyrrolidine]	≤ 10 nM
Cc1ccc(Cl)c(O[C@@H](C2CC2)[C@H]2CCNC2)c1F [Example 16-68, (S)-3-[(S)-(6-Chloro-2-fluoro-3-methylphenoxy)cyclopropylmethyl]pyrrolidine]	≤ 10 nM
Cc1ccc(Cl)c(O[C@H](C2CC2)[C@H]2CCNC2)c1F [Example 16-69, (S)-3-[(R)-(6-Chloro-2-fluoro-3-methylphenoxy)cyclopropylmethyl]pyrrolidine]	≤ 10 nM
COc1ccc(Cl)c(O[C@@H](C2CC2)[C@H]2CCNC2)c1F [Example 16-70, (S)-3-[(S)-(6-Chloro-2-fluoro-3-methoxyphenoxy)cyclopropylmethyl]pyrrolidine]	≤ 10 nM
Clc1cc(Cl)c(O[C@@H](C2CC2)[C@H]2CCNC2)cc1Cl [Example 16-71, (S)-3-[(S)cyclopropyl-(2,4,5-trichlorophenoxy)methyl]pyrrolidine]	≤ 100 nM

Now from value to molecule:

Ki	Compound
≤ 100 nM	Clc1ccc(O[C@H](C2CC2)[C@H]2CCNC2)c(Cl)c1 [Example 16-20, (S)-3-[(R)cyclopropyl-(2,4-dichlorophenoxy)methyl]pyrrolidine]
≤ 100 nM	Clc1ccc(O[C@H](C2CC2)[C@@H]2CCNC2)c(Cl)c1 [Example 16-21, (R)-3-[(R)cyclopropyl-(2,4-dichlorophenoxy)methyl]pyrrolidine]
≤ 100 nM	Cc1ccc(O[C@H](C2CC2)[C@@H]2CCNC2)c(Cl)c1 [Example 16-24, (R)-3-[(R)-(2-Chloro-4-methylphenoxy)cyclopropylmethyl]pyrrolidine]
≤ 100 nM	Cc1ccc(O[C@H](C2CC2)[C@@H]2CCNC2)c(Br)c1 [Example 16-26, (R)-3-[(R)-(2-Bromo-4-methylphenoxy)cyclopropylmethyl]pyrrolidine]
≤ 100 nM	Cc1ccc(O[C@H](C2CC2)[C@@H]2CCNC2)c(C)c1 [Example 16-27, (R)-3-[(R)cyclopropyl-(2,4-dimethylphenoxy)-methyl]pyrrolidine]
≤ 100 nM	Cc1cc(Cl)ccc1O[C@H](C1CC1)[C@H]1CCNC1 [Example 16-30, (S)-3-[(R)-(4-Chloro-2-methylphenoxy)cyclopropylmethyl]pyrrolidine]
≤ 100 nM	Cc1cc(Cl)ccc1O[C@@H](C1CC1)[C@@H]1CCNC1 [Example 16-31, (R)-3-[(S)-(4-Chloro-2-methylphenoxy)cyclopropylmethyl]pyrrolidine]
≤ 100 nM	Cc1cc(Cl)ccc1O[C@H](C1CC1)[C@@H]1CCNC1 [Example 16-32, (R)-3-[(R)-(4-Chloro-2-methylphenoxy)cyclopropylmethyl]pyrrolidine]
≤ 10 nM	FC(F)(F)c1cc(Cl)ccc1O[C@@H](C1CC1)[C@H]1CCNC1 [Example 16-35, (S)-3-[(S)-(4-Chloro-2-trifluoromethylphenoxy)cyclopropylmethyl]pyrrolidine]
≤ 100 nM	FC(F)(F)c1cc(Cl)ccc1O[C@H](C1CC1)[C@@H]1CCNC1 [Example 16-36, (R)-3-[(R)-(4-Chloro-2-trifluoromethylphenoxy)cyclopropylmethyl]pyrrolidine]

Biological target: hSERT (Homo sapiens, UniProt P31645)
Sequence (P31645 whole entry): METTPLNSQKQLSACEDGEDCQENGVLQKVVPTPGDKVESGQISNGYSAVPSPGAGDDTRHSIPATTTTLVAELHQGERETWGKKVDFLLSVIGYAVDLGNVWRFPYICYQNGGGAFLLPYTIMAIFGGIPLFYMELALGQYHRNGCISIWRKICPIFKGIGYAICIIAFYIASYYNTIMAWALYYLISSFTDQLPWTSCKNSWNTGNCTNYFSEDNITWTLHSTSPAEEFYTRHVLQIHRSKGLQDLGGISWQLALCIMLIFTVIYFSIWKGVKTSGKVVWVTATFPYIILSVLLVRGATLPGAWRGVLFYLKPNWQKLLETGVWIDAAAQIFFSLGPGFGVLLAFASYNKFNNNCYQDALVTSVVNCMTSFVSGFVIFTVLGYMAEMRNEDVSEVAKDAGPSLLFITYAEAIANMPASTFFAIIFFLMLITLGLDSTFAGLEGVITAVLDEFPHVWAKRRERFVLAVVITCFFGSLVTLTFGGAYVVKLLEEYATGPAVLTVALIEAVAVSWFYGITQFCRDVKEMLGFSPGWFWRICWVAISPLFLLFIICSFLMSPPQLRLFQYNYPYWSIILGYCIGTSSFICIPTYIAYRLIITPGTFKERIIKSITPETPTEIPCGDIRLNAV
Test: hSERT membrane radioligand binding assay (3H-citalopram), Assay 1
Details: SERT pKi, hSERT HEK-293 membranes, 1.0 nM 3H-citalopram; values given as lower bounds

Compound	Ki
CSc1ccccc1O[C@@H](C1CC1)[C@H]1CCNC1 [Example 16-5, (S)-3-[(S)cyclopropyl-(2-methylsulfanylphenoxy)methyl]pyrrolidine]	≤ 100 nM
Clc1cccc(O[C@@H](C2CC2)[C@@H]2CCNC2)c1Cl [Example 16-6, (R)-3-[(S)cyclopropyl-(2,3-dichlorophenoxy)methyl]pyrrolidine]	≤ 10 nM
FC(F)(F)c1c(Cl)cccc1O[C@H](C1CC1)[C@H]1CCNC1 [Example 16-17, (S)-3-[(R)-(3-Chloro-2-trifluoromethylphenoxy)cyclopropylmethyl]pyrrolidine]	≤ 10 nM
COc1c(Cl)cccc1O[C@@H](C1CC1)[C@H]1CCNC1 [Example 16-18, (S)-3-[(S)-(3-Chloro-2-methoxyphenoxy)cyclopropylmethyl]pyrrolidine]	≤ 100 nM
COc1cc(F)ccc1O[C@H](C1CC1)[C@H]1CCNC1 [Example 16-39, (S)-3-[(R)cyclopropyl-(4-fluoro-2-methoxyphenoxy)methyl]pyrrolidine]	≤ 10 nM
COc1cc(F)ccc1O[C@@H](C1CC1)[C@H]1CCNC1 [Example 16-40, (S)-3-[(S)cyclopropyl-(4-fluoro-2-methoxyphenoxy)methyl]pyrrolidine]	≤ 100 nM
Clc1ccc(O[C@@H](C2CC2)[C@H]2CCNC2)c(C2CCCCC2)c1 [Example 16-43, (S)-3-[(S)-(4-Chloro-2-cyclohexylphenoxy)cyclopropylmethyl]pyrrolidine]	≤ 100 nM
Cc1cccc(Cl)c1O[C@@H](C1CC1)[C@H]1CCNC1 [Example 16-45, (S)-3-[(S)-(2-Chloro-6-methylphenoxy)cyclopropylmethyl]pyrrolidine]	≤ 100 nM
Cc1ccc(Cl)c(O[C@@H](C2CC2)[C@H]2CCNC2)c1F [Example 16-68, (S)-3-[(S)-(6-Chloro-2-fluoro-3-methylphenoxy)cyclopropylmethyl]pyrrolidine]	≤ 100 nM
Cc1ccc(Cl)c(O[C@H](C2CC2)[C@H]2CCNC2)c1F [Example 16-69, (S)-3-[(R)-(6-Chloro-2-fluoro-3-methylphenoxy)cyclopropylmethyl]pyrrolidine]	≤ 100 nM
COc1ccc(Cl)c(O[C@@H](C2CC2)[C@H]2CCNC2)c1F [Example 16-70, (S)-3-[(S)-(6-Chloro-2-fluoro-3-methoxyphenoxy)cyclopropylmethyl]pyrrolidine]	≤ 100 nM
Clc1cc(Cl)c(O[C@@H](C2CC2)[C@H]2CCNC2)cc1Cl [Example 16-71, (S)-3-[(S)cyclopropyl-(2,4,5-trichlorophenoxy)methyl]pyrrolidine]	≤ 10 nM

Second part, the molecule after the results:

Ki	Compound
≤ 10 nM	Clc1ccc(O[C@H](C2CC2)[C@H]2CCNC2)c(Cl)c1 [Example 16-20, (S)-3-[(R)cyclopropyl-(2,4-dichlorophenoxy)methyl]pyrrolidine]
≤ 10 nM	Clc1ccc(O[C@H](C2CC2)[C@@H]2CCNC2)c(Cl)c1 [Example 16-21, (R)-3-[(R)cyclopropyl-(2,4-dichlorophenoxy)methyl]pyrrolidine]
≤ 10 nM	Cc1ccc(O[C@H](C2CC2)[C@@H]2CCNC2)c(Cl)c1 [Example 16-24, (R)-3-[(R)-(2-Chloro-4-methylphenoxy)cyclopropylmethyl]pyrrolidine]
≤ 10 nM	Cc1ccc(O[C@H](C2CC2)[C@@H]2CCNC2)c(Br)c1 [Example 16-26, (R)-3-[(R)-(2-Bromo-4-methylphenoxy)cyclopropylmethyl]pyrrolidine]
≤ 10 nM	Cc1ccc(O[C@H](C2CC2)[C@@H]2CCNC2)c(C)c1 [Example 16-27, (R)-3-[(R)cyclopropyl-(2,4-dimethylphenoxy)-methyl]pyrrolidine]
≤ 10 nM	Cc1cc(Cl)ccc1O[C@H](C1CC1)[C@H]1CCNC1 [Example 16-30, (S)-3-[(R)-(4-Chloro-2-methylphenoxy)cyclopropylmethyl]pyrrolidine]
≤ 10 nM	Cc1cc(Cl)ccc1O[C@@H](C1CC1)[C@@H]1CCNC1 [Example 16-31, (R)-3-[(S)-(4-Chloro-2-methylphenoxy)cyclopropylmethyl]pyrrolidine]
≤ 10 nM	Cc1cc(Cl)ccc1O[C@H](C1CC1)[C@@H]1CCNC1 [Example 16-32, (R)-3-[(R)-(4-Chloro-2-methylphenoxy)cyclopropylmethyl]pyrrolidine]
≤ 10 nM	FC(F)(F)c1cc(Cl)ccc1O[C@@H](C1CC1)[C@H]1CCNC1 [Example 16-35, (S)-3-[(S)-(4-Chloro-2-trifluoromethylphenoxy)cyclopropylmethyl]pyrrolidine]
≤ 100 nM	FC(F)(F)c1cc(Cl)ccc1O[C@H](C1CC1)[C@@H]1CCNC1 [Example 16-36, (R)-3-[(R)-(4-Chloro-2-trifluoromethylphenoxy)cyclopropylmethyl]pyrrolidine]
